Source: patent US12716890B2, “Macro tissue explant, methods and uses therefor” (Massachusetts Institute of Technology, priority 2017, dated 2026)
Where two headings read alike, the source gives them in different places. One block for each compound: values may come before it. Numbered stars: 1 amine (or outer) side, 2 acyl side, 3 side chain; on linkers, the order of the positions; unused ones are H or OH. Bridge positions count the residues as written; N and C are the ends. Peptide text beside a SMILES is read from it. X1 = O=C(CCC[*:2])[*:1]

What was measured:
[1] = tested on: gastrointestinal tissue explants derived from either the esophagus, stomach or small intestine
[2] = tested on: intestinal tissue explant; format: in vitro ADME, pigs
Description: To assemble the intestinal tissue explant system, freshly isolated intestinal tissue from the jejunum was prepared according to the described tissue dissection procedure and mounted on the manufactured interface design with a generic 96 well plate as a receiver plate (Corning® 96 well plates, clear bottom, Corning) or a UV transparent plate (Corning® 96-well UV Plates, Corning). The jejunum was identified as the region of the small intestine approximately 50 cm after the pylorus. The difference between the jejunum and ileum was determined based on anatomical location, the structural differences of the tissue, differences in blood supply, and fat deposition as well as the presence of lymphoid tissue. For the system in 384-well format, a 384 microplate with glass bottom (Greiner Sensoplate™ glass bottom multiwall plates, Sigma) were used. The tissue was then cultured in this system according to the described cultivation protocol for specific ex vivo cultivation time periods. Intestinal perfusion experiments using the system were conducted only once after 24 hours of ex vivo cultivation unless otherwise noted.
For perfusion experiments the following set up was used: Formulation samples were prepared using a liquid handling station (Evo 150 liquid handling deck, Tecan), an automated dispenser (EL406 Combination Washer Dispenser, BioTek Instruments) was used to fill receiver 96 well plates, a microplate reader (Infinite® M1000 PRO, Tecan) was then used for spectrophotometric analysis. Specifically, formulation samples were prepared following a protocol to mix the pre-pared excipient plate 10 times, pipette the appropriate amount of excipient and dispense into a 96-well plate with the appropriate amount of compound already it in. The excipient/compound formulations were then mixed 60 times and then the appropriate amount was pipetted and dispensed onto the tissue explant. All experiments, including sample incubation, were performed at room temperature. […]

[3] = Pharmacokinetic validation in vivo, formulation delivered to duodenum, oxytocin serum ELISA; conditions: female, Yorkshire, pig, po, pigs, formulation delivered directly to the duodenum, read-out: bioavailability of oxytocin (absolute / average oral)
Description: All animal procedures were conducted in accordance with protocols approved by the Massachusetts Institute of Technology Committee on Animal Care. For tissue experiments, fresh tissue was obtained from local abattoirs within 20 minutes of euthanization.
Pharmacokinetic validation was performed in vivo. Female Yorkshire pigs between 45 and 50 kg in weight were used. Before every experiment, the animals were fasted overnight and on the day of the procedure, the morning feed was held. The animals were sedated with an intramuscular injection of Telazol (tileramine/zolazepam) 5 mg/kg, xylazine 2 mg/kg and atropine 0.04 mg/kg. The duodenum was accessed endoscopically and the formulation directly delivered to the duodenum. Serial blood sampling from the peripheral veins was performed for quantification of oxytocin. For oxytocin serum quantification, an Oxytocin ELISA kit (Cat. no. ab133050, Abcam) was used according to the manufacturer's protocol. […] To investigate the mechanism of absorption enhancement and to analyze potential local effects of the formulation on the small intestine histologically, a surgical procedure coupled with custom-made devices was developed, that enabled controlled exposure of the formulation on a defined area of the intestinal tissue. E-cadherin stained sections of biopsy samples were used to analyze the disruption of cell-cell adhesions.

MDR-1 = target: T1, MDR-1 (Sus scrofa, UniProt K7GMM7); experiment: Perfusion of substrate through siRNA-transfected intestinal tissue explant; format: in vitro ADME, pigs
T1 construct: from tissue; host or cells: pig small intestine explant, cultured ex vivo
Description: Specifically, siRNA was delivered to tissue explants using ultrasound by applying 5 second intervals for 1 minute for 40 kHz generated using a separate ultrasound generator (Sonics and Materials, Inc.) and a custom made 96 tip probe. The following siRNAs at concentrations of 1 μm in deionized water were used: Silencer® Select Pre-Designed siRNA (siRNA ID: s3846, Gene Symbol: CYP3A4), Silencer® Select Pre-Designed siRNA (siRNA ID: s10419, Gene Symbol: ABCB1), Silencer® Select Negative Control No. 1 siRNA.

GLP-1 (7-36) = experiment: GLP-1 stimulation of intestinal tissue explant, ELISA of GLP-1 (7-36); format: cell-based, pigs; conditions: varying doses for 24 hours
Description: As determined in Example 1, the intestinal tissue explant comprises endocrine cells, determined by the expression of […] and Glucagon-like peptide-1 (GLP-1). Therefore, the ability of the intestinal tissue explant to respond to known GLP-1 stimulants was investigated. Specifically, acetylcholine, LiCl, and glucose were added to the intestinal tissue explant at varying doses for 24 hours, then cells within the apical side of the intestinal epithelium were isolated. The concentration of active cleaved peptide of GLP-1 (GLP-1 (7-36)) of these cell lysates was determined by ELISA analysis. […] The stimulation of GLP-1 secretion by acetylcholine, LiCl and glucose, which act through different pathways, indicated these pathways were intact in the intestinal tissue explant. The Acetylcholine and LiCl act as non-nutrient stimulators of GLP-1 that are reported to simulate GLP-1 activity via neuronal regulation. Glucose triggers GLP-1 activity via nutrient-based pathways.

T1 sequence (K7GMM7 1-1248): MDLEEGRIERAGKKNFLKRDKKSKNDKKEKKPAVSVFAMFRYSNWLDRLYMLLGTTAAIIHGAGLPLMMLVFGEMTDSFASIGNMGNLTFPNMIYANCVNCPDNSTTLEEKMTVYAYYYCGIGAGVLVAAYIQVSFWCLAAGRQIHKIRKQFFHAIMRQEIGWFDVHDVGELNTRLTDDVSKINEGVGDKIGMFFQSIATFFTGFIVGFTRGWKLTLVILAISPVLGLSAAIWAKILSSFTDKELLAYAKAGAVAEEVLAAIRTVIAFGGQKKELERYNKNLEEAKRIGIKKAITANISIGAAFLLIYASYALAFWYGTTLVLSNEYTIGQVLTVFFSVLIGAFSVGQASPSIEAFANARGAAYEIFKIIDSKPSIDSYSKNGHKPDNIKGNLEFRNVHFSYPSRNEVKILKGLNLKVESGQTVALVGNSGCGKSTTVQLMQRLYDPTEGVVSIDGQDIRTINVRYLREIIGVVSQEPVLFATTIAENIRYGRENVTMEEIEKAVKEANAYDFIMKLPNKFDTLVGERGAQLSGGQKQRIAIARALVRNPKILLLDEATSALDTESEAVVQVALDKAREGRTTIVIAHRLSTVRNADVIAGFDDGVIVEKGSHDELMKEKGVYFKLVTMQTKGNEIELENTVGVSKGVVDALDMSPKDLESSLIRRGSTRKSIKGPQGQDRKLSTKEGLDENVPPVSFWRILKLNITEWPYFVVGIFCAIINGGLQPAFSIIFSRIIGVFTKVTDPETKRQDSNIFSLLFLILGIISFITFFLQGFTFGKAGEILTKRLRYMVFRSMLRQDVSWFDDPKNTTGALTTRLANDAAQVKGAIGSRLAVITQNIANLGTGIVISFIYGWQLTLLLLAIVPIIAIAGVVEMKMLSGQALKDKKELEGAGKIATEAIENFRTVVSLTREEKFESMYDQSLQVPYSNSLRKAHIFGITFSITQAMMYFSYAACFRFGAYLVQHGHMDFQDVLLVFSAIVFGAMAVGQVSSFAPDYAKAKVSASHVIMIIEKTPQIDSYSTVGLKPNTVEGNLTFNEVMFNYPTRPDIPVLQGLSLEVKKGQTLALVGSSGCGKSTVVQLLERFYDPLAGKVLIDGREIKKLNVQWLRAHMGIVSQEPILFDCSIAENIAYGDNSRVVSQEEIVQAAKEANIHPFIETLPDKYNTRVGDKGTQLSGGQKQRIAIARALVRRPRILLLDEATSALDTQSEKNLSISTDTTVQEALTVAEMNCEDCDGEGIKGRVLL

Compound: CCO [ethanol]
- tissue viability [1]: dose-dependent chemically induced decrease in tissue viability

Compound: C=O [formalin]
- tissue viability ([1]; 24 hours exposure, different concentrations in PBS, esophagus, stomach or small intestine explants): dose-dependent chemically induced decrease in tissue viability

Compound: Alexa488-insulin: human insulin (recombinant) labeled with Alexa Fluor 488 NHS Ester
- intestinal absorption/perfusion of model drug formulated with polyethyleneimine (800 Da, end-capped) [2]: increase the intestinal absorption to various degrees

Compound: Polyethyleneimine [Polyethyleneimine (800 Da, end-capped)]
- intestinal perfusion of oxytocin formulated with excipient [2]: increased the intestinal perfusion of oxytocin several fold

- bioavailability [3]: 0.64%
Compound: CC[C@H](C)[C@@H]1NC(=O)[C@H](Cc2ccc(O)cc2)NC(=O)[C@@H](N)CSSC[C@@H](C(=O)N2CCC[C@H]2C(=O)N[C@@H](CC(C)C)C(=O)NCC(N)=O)NC(=O)[C@H](CC(N)=O)NC(=O)[C@H](CCC(N)=O)NC1=O [oxytocin]

- perfusion after knock-down of MDR-1 (MDR-1): significant change of perfusion
Compound: CNC(=C[N+](=O)[O-])NCCSCc1ccc(CN(C)C)o1 [ranitidine]

Compound: CO [methanol]
- tissue viability [1]: dose-dependent chemically induced decrease in tissue viability

Compound: [Cl-].[Li+] [LiCl]
- concentration of GLP-1 (7-36) in cell lysates (GLP-1 (7-36)): increased concentration so of GLP-1 (7-36) in a dose-dependent manner

- intestinal absorption/perfusion of model drug formulated with polyethyleneimine (800 Da, end-capped) [2]: limited increase in intestinal perfusion
Compound: CC[C@H](C)[C@@H]1NC(=O)[C@H](Cc2ccc(OC)cc2)NC(=O)CCCSC[C@@H](C(=O)N2CCC[C@H]2C(=O)N[C@@H](CC(C)C)C(=O)NCC(N)=O)NC(=O)[C@H](CC(N)=O)NC(=O)[C@H](CCC(N)=O)NC1=O [carbetocin] (Y(Me)IQNCPLG-NH2; linker N-5 via X1)
